Measured values: article PMC8371461 (Frontiers in Pharmacology, 2021)

How the values were obtained:
Assay in all cases: kinome scan
Format in all cases: binding
[1] = target: T1, ABL1(Q252H)-nonphosphorylated (Homo sapiens, UniProt P00519, Q252H); settings: 10 µM
T1 construct: purchased DiscoverX (KINOMEscan)

ACVR1B = target: T2, ACVR1B (Homo sapiens, UniProt P36896); settings: 10 µM
T2 construct: purchased DiscoverX (KINOMEscan)

CHEK1 = target: T3, CHEK1 (Homo sapiens, UniProt O14757)
T3 construct: purchased DiscoverX (KINOMEscan)

EGFR(L861Q) = target: T4, EGFR(L861Q) (Homo sapiens, UniProt P00533, L861Q); settings: 10 µM
T4 construct: purchased DiscoverX (KINOMEscan)

HIPK2 = target: T5, HIPK2 (Homo sapiens, UniProt Q9H2X6); settings: 10 µM
T5 construct: purchased DiscoverX (KINOMEscan)

HIPK4 = target: T6, HIPK4 (Homo sapiens, UniProt Q8NE63); settings: 10 µM
T6 construct: purchased DiscoverX (KINOMEscan)

LATS2 = target: T7, LATS2 (Homo sapiens, UniProt Q9NRM7); settings: 10 µM
T7 construct: purchased DiscoverX (KINOMEscan)

MARK3 = target: T8, MARK3 (Homo sapiens, UniProt P27448); settings: 10 µM
T8 construct: purchased DiscoverX (KINOMEscan)

NEK3 = target: T9, NEK3 (Homo sapiens, UniProt P51956); settings: 10 µM
T9 construct: purchased DiscoverX (KINOMEscan)

SgK110 = target: T10, SgK110 (Homo sapiens, UniProt P0C264); settings: 10 µM
T10 construct: purchased DiscoverX (KINOMEscan)

SIK2 = target: T11, SIK2 (Homo sapiens, UniProt Q9H0K1); settings: 10 µM
T11 construct: purchased DiscoverX (KINOMEscan)

TAOK3 = target: T12, TAOK3 (Homo sapiens, UniProt Q9H2K8); settings: 10 µM
T12 construct: purchased DiscoverX (KINOMEscan)

T3 sequence (O14757 whole entry): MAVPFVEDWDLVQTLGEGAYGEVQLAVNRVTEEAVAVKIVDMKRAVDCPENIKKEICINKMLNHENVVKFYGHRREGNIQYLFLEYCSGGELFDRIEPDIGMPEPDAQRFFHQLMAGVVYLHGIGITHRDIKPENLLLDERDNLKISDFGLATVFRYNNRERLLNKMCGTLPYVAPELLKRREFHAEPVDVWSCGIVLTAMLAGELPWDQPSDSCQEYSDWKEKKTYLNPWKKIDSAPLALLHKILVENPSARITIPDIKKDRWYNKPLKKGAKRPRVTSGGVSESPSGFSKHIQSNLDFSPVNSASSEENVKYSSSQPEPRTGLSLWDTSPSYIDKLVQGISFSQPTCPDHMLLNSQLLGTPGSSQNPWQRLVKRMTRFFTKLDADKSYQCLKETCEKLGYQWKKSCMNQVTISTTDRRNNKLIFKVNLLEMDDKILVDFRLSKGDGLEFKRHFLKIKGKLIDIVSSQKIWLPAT
T10 sequence (P0C264 whole entry): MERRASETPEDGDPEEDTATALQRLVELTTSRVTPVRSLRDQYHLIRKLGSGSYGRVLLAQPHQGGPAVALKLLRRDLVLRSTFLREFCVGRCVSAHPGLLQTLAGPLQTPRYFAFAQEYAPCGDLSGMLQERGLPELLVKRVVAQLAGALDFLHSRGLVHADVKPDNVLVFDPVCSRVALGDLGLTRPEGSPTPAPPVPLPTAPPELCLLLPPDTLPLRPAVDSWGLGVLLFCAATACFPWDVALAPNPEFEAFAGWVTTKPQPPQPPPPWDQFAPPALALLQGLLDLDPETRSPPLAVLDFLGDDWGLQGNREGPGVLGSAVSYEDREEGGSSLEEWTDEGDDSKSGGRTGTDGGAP
T5 sequence (Q9H2X6 whole entry): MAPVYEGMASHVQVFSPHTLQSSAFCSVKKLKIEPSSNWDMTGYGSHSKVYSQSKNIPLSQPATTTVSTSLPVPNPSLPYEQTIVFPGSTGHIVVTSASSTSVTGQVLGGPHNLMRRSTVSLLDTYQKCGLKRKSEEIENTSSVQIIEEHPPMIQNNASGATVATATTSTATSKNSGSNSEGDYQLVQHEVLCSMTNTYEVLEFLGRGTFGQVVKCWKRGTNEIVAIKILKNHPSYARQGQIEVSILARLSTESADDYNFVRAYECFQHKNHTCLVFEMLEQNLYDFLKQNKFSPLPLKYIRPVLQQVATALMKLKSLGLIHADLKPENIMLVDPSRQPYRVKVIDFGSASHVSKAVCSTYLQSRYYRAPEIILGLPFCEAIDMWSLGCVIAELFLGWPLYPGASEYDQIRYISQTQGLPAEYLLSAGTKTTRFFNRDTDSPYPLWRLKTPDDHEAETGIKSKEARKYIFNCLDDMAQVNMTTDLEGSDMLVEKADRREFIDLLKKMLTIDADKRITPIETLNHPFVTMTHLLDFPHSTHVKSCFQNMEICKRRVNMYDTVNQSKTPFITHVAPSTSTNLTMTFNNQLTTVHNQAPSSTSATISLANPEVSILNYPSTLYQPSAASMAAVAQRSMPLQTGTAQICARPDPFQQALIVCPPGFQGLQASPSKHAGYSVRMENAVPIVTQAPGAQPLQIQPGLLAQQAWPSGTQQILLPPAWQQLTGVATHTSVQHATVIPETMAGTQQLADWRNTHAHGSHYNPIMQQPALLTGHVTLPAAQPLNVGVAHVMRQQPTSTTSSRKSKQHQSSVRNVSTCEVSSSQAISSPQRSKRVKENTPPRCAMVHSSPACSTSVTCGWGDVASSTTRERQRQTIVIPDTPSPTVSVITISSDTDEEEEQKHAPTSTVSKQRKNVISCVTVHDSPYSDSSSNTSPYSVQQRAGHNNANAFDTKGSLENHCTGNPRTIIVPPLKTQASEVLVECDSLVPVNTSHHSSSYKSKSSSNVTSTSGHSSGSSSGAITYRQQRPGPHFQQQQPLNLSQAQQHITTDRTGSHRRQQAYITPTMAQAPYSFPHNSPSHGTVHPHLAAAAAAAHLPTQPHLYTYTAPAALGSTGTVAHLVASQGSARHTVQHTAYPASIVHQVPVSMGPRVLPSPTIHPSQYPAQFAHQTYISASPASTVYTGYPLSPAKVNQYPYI
T7 sequence (Q9NRM7 whole entry): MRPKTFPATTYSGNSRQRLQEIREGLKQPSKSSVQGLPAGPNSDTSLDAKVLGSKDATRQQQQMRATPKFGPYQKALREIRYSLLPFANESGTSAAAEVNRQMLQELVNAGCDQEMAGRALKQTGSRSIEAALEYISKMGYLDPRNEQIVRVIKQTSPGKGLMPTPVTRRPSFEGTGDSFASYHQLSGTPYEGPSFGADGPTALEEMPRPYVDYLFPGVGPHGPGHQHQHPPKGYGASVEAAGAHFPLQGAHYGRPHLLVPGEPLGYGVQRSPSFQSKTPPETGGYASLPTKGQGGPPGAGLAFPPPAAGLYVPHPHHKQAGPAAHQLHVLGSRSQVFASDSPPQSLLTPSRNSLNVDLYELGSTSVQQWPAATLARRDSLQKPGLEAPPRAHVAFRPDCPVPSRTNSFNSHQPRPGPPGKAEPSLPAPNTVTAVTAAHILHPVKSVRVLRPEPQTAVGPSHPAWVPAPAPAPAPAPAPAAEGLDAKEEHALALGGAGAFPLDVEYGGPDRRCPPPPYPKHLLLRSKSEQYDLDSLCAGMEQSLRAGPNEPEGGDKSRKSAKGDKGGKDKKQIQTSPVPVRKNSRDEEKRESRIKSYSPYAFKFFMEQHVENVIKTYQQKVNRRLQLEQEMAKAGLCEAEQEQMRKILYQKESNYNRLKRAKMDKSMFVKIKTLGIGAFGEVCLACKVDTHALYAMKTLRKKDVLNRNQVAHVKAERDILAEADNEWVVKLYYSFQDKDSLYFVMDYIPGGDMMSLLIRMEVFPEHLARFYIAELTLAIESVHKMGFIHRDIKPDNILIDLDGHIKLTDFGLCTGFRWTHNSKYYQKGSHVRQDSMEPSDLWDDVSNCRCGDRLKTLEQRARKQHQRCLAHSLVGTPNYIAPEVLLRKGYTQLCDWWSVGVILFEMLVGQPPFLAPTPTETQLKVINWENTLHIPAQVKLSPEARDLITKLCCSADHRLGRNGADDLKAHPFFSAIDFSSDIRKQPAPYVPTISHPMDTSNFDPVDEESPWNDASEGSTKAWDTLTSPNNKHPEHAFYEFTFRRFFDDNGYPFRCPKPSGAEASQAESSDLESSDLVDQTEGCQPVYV
T9 sequence (P51956 whole entry): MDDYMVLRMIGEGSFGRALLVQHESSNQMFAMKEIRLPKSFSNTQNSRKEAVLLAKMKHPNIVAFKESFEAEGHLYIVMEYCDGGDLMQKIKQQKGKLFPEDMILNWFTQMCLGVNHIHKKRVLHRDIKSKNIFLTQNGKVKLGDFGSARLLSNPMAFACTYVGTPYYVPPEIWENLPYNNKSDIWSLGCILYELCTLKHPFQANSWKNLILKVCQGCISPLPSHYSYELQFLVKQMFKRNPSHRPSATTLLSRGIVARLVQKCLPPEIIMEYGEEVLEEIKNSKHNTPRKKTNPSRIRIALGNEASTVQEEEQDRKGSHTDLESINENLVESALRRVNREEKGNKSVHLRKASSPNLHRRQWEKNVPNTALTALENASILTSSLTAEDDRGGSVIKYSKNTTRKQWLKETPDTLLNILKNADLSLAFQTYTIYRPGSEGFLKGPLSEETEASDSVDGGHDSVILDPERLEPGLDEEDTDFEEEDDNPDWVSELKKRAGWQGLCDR
T11 sequence (Q9H0K1 whole entry): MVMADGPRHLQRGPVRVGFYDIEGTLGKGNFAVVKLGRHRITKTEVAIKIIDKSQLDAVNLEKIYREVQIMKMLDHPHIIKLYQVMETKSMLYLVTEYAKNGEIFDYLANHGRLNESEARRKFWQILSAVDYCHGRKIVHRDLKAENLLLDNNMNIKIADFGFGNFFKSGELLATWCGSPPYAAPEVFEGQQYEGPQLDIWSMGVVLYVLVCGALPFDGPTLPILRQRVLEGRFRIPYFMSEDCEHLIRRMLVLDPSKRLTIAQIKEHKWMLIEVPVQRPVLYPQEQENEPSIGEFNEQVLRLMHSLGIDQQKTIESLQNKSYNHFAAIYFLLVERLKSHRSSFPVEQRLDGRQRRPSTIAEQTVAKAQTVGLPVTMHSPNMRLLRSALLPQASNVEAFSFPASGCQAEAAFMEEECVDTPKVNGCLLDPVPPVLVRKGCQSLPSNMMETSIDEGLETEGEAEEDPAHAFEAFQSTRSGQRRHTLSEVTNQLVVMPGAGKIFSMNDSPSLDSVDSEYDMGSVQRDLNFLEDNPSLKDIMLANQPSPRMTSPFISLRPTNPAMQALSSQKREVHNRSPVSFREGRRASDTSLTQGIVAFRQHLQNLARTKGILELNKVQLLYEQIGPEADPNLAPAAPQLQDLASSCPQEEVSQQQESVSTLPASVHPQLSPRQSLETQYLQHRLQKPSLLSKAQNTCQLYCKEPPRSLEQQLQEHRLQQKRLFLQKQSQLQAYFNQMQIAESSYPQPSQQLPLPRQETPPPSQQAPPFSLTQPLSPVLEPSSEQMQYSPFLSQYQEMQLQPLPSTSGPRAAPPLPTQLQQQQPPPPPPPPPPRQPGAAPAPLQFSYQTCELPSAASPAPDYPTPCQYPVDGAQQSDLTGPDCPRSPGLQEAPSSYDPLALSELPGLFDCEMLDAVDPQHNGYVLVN
T2 sequence (P36896 24-505): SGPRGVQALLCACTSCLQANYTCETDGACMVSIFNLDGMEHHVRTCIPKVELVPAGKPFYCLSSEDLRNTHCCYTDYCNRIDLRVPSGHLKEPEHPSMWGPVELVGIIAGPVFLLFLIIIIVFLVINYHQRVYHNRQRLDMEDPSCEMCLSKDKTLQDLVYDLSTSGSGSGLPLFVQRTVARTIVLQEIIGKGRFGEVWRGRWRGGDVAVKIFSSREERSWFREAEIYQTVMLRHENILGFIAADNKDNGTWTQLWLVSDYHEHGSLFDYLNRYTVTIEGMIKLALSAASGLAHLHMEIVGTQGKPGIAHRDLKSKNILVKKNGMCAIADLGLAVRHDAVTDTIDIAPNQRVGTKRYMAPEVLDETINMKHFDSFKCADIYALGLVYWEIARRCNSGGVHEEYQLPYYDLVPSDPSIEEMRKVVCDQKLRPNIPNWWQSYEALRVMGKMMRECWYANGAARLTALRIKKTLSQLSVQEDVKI

## Nc1ccc(N=Nc2ccccc2)c(N)n1 [phenazopyridine, 2,6-diamino-3-(phenylazo)pyridine]
[1]
  kinase inhibition: 90
ACVR1B
  kinase inhibition: 86
CHEK1; CHEK1, 10 µM
  kinase inhibition: 100
CHEK1; CHK1, read-out: Kinome scan (% of control at 10 µM)
  remaining binding at 10 µM: 100%
EGFR(L861Q)
  kinase inhibition: 95
HIPK2
  kinase inhibition: 89
HIPK4
  kinase inhibition: 72
LATS2
  kinase inhibition: 100
MARK3
  kinase inhibition: 100
NEK3
  kinase inhibition: 100
SgK110
  kinase inhibition: 100
SIK2
  kinase inhibition: 92
TAOK3
  kinase inhibition: 79
